From publication PMC7187165, “Structure‐Based Design, Synthesis, and Biological Evaluation of Triazole‐Based smHDAC8 Inhibitors” (Chemmedchem, 2020)

Experiments:
smHDAC8 = target: T1, smHDAC8 (Schistosoma mansoni, UniProt A5H660); experiment: biochemical; assay type: biochemical; conditions: @ 10 μM; pretest n=1; read-out: smHDAC8 (% inhibition, Fluor de Lys)
T1 construct: made in house; host or cells: E. coli
T1 sequence (A5H660 1-440): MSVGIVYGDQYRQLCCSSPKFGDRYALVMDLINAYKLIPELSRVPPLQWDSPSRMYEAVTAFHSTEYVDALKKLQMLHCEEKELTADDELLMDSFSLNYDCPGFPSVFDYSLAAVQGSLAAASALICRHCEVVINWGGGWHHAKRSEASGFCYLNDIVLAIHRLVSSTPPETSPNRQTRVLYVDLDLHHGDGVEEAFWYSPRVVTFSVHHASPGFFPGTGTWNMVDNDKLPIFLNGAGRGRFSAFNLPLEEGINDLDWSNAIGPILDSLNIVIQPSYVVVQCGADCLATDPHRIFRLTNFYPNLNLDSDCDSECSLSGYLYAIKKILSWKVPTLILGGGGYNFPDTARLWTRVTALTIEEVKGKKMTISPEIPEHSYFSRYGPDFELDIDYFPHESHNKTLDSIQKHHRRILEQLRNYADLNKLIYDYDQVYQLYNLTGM

hsHDAC1 [1] = target: T2, hsHDAC1 (Homo sapiens, UniProt Q13547); set-up: method as in PMID 24086136, PMID 26013035; conditions: @ 10 μM; SAHA row of Table 3; cited from earlier work
T2 sequence (Q13547 whole entry): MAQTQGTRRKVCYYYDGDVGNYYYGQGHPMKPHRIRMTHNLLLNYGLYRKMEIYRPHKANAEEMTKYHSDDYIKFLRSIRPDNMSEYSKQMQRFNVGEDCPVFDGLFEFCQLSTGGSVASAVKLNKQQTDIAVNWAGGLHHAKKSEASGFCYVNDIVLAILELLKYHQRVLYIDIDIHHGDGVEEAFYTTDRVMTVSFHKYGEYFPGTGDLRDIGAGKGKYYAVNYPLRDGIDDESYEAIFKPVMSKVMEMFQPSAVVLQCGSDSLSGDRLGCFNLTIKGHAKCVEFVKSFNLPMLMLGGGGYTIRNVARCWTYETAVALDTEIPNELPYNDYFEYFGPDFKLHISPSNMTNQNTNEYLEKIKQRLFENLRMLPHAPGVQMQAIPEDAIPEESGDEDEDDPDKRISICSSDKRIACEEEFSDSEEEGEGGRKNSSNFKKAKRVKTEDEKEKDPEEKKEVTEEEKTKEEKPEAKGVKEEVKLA

hsHDAC1 [2] = target: T2, hsHDAC1; experiment: In vitro hsHDAC1 inhibition (ZMAL substrate, trypsin developer); assay type: biochemical; conditions: read-out: hsHDAC1 (% inhibition, ZMAL)

Q: Which inhibition at 10 µM (smHDAC8) does the source give for `O=C(CCCCCCC(=O)Nc1ccccc1)NO` [SAHA (1), SAHA, reference compound] here?
A: The inhibition at 10 µM was 72%.

Q: What about the “hsHDAC1 % inhibition (ZMAL)” value (hsHDAC1 [1]) of the same compound?
A: The value was 0.117±0.0056 97.3±1.3 % @ 10 μM.

Q: And the inhibition at 10 µM (hsHDAC1 [2])?
A: Its inhibition at 10 µM is 97.3 ± 1.3%.
